We go through 22 molecules from US9044463B2, “FSH receptor antagonists” (Merck Sharp & Dohme B.V., priority 2011, dated 2015).

The experiment concerns the target T1, human FSH receptor (Homo sapiens, UniProt P23945).
T1 construct: expressed in transfected cells; host or cells: CHO (Chinese Hamster Ovary) cells, stably transfected; cotransfected with a CRE-luciferase reporter
T1 sequence (P23945 18-695): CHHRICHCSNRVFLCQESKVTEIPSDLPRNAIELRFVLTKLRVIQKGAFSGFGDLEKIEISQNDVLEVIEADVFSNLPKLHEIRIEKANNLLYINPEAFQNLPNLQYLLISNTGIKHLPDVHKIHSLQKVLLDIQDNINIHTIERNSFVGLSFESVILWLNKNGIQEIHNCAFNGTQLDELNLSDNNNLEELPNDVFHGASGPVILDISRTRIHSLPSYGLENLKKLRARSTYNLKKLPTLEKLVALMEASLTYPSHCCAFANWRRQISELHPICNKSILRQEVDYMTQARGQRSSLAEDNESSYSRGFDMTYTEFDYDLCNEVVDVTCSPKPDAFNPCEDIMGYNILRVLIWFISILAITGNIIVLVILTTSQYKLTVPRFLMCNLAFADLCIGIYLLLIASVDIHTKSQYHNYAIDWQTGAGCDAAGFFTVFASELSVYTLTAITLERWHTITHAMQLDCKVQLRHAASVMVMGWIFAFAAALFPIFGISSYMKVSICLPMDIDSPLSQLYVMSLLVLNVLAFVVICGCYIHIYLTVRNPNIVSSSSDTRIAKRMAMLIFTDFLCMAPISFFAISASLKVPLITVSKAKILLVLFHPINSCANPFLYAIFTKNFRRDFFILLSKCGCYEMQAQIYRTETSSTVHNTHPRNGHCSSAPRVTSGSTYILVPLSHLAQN
The experiment in a line: Antagonistic activity at the human FSH receptor expressed in CHO cells (CRE-luciferase reporter). The class given is cell-based. The note with it: CHO cells stably transfected with human FSH receptor and CRE-luciferase; with 49 μM recFSH; 4 hours incubation; read-out: IC50 (inhibition of recFSH-induced luciferase stimulation). As to the method:
Antagonistic Activity of Compounds at the Human FSH Receptor Expressed in CHO Cells
Antagonistic activity of the compounds at the human FSH receptor was determined in Chinese Hamster Ovary (CHO) cells stably transfected with the human FSH receptor and cotransfected to with a cAMP responsive element (CRE)/promoter directing the expression of a firefly luciferase reporter gene. Binding of the compounds to the Gs protein-coupled FSH receptor will result in an increase of cAMP, which in turn will induce an increased transactivation of the luciferase reporter. The cells (7,500 cells/well of a 384 well plate) were incubated in Dulbecco′ minimal essential F12 modified medium (Invitrogen), supplemented with 1 μg/ml bovine insulin, 5 μg/ml human apo-transferrin, 100 U/ml penicillin G and 100 μg/ml streptomycin with the test compounds (concentration between 0.316 nM and 10.0 μM) in duplicate together with […] recFSH (which, at this concentration in the absence of test compound, induces 80% of the maximal luciferase stimulation) in a humidified atmosphere (95%) at 5-7% CO2 and 37° C. The final concentration of DMSO was 1%. After 4 hours of incubation, plates were allowed to adjust to room temperature for 1 hour. Then, SteadyLite (PerkinElmer) solution was added to the wells and cells were allowed to lyse for at least 1 hour at room temperature. Subsequently, luciferase activity was measured in a luminescence counter. The signal is expressed as counts per second (cps). The IC50 (concentration of test compound causing half-maximal (50%) inhibition of the maximally attainable inhibition of the luciferase stimulation by the compound) and efficacy of the compounds were determined using the software program MathIQ (version 2.3, ID Business Solutions Limited).
In general terms: In a reporter assay the amount or activity of a reporter protein is the signal.
A word on the IC50: it is the midpoint of a concentration-inhibition curve. Take `COc1cccc(-c2cc3c(cc2C(=O)N[C@@H](CO)Cc2c[nH]c4ccccc24)-c2cc(OC)c(OC)cc2CC3)c1` [Example 25, (R)—N-(1-hydroxy-3-(1H-indol-3-v)propan-2-v)-6,7-dimethoxy-2-(3-methoxyphenyl)-9,10-dihydrophenanthrene-3-carboxamide]: the IC50 is below 100 nM.

With `COc1cc2c(cc1OC)-c1cc(C(=O)N[C@@H](CO)Cc3c[nH]c4ccccc34)c(-c3cccc(C(N)=O)c3)cc1CC2` [Example 26, (R)-2-(3-carbamoylphenyl)-N-(1-hydroxy-3-(1H-indol-3-yl)propan-2-yl)-6,7-dimethoxy-9,10-dihydrophenanthrene-3-carboxamide], the IC50 fell in the range of 100 to 1000 nM.

As for `C=CCOc1cc2c(cc1OC)-c1cc(C(=O)N[C@@H](CO)Cc3c[nH]c4ccccc34)c(-c3ccccc3F)cc1CC2` [Example 28, 7-(allyloxy)-2-(2-fluorophenyl)-N—((R)-1-hydroxy-3-(1H-indol-3-yl)propan-2-yl)-6-methoxy-9,10-dihydrophenanthrene-3-carboxamide], the concentration for half-maximal inhibition (IC50) was below 100 nM.

For `C=CCOc1cc2c(cc1OC)CCc1cc(-c3ccccc3F)c(C(=O)N[C@@H](CO)Cc3c[nH]c4ccccc34)cc1-2` [Example 29, 6-(allyloxy)-2-(2-fluorophenyl)-N—((R)-1-hydroxy-3-(1H-indol-3-yl)propan-2-yl)-7-methoxy-9,10-dihydrophenanthrene-3-carboxamide], the IC50 was below 100 nM.

Turning to `COc1cc2c(cc1O)CCc1cc(-c3ccccc3F)c(C(=O)N[C@@H](CO)Cc3c[nH]c4ccccc34)cc1-2` [Example 30, 2-(2-fluorophenyl)-7-hydroxy-N—((R)-1-hydroxy-3-(1H-indol-3-yl)propan-2-yl)-6-methoxy-9,10-dihydrophenanthrene-3-carboxamide], the IC50 was below 100 nM.

Regarding `COc1cc2c(cc1O)-c1cc(C(=O)N[C@@H](CO)Cc3c[nH]c4ccccc34)c(-c3ccccc3F)cc1CC2` [Example 31, 2-(2-fluorophenyl)-6-hydroxy-N—((R)-1-hydroxy-3-(1H-indol-3-yl)propan-2-yl)-7-methoxy-9,10-dihydrophenanthrene-3-carboxamide], the concentration for half-maximal inhibition (IC50) was 100 to 1000 nM.

As for `COc1cc2c(cc1C#N)-c1cc(C(=O)N[C@@H](CO)Cc3c[nH]c4ccccc34)c(OC(C)C)cc1CC2` [Example 33, (R)-6-cyano-N-(1-hydroxy-3-(1H-indol-3-yl)propan-2-yl)-2-isopropoxy-7-methoxy-9,10-dihydrophenanthrene-3-carboxamide], the half-inhibitory concentration (IC50) lay within 100 to 1000 nM.

For the molecule `COc1cc2c(cc1OC)-c1cc(C(=O)N[C@@H](CO)Cc3c[nH]c4ccccc34)c(OC(C)C)cc1OC2` [Example 34, (R)—N-(1-hydroxy-3-(1H-indol-3-yl)propan-2-yl)-3-isopropoxy-8,9-dimethoxy-6H-benzo[c]chromene-2-carboxamide], the IC50 was below 100 nM.

`CC(C)Oc1cc2c(cc1C(=O)N[C@@H](CO)Cc1c[nH]c3ccccc13)-c1cc3c(cc1CO2)OCO3` [Example 35, (R)—N-(1-hydroxy-3-(1H-indol-3-yl)propan-2-yl)-3-isopropoxy-8,9-(1′,3′-dioxolo)-6H-benzo[c]chromene-2-carboxamide]: the half-inhibitory concentration (IC50) was in the range of 100 to 1000 nM.

With `COc1cc2c(cc1OC)-c1cc(C(=O)N[C@@H](CO)Cc3c[nH]c4ccccc34)c(-c3ccccc3F)cc1OC2` [Example 36, 3-(2-fluorophenyl)-N—((R)-1-hydroxy-3-(1H-indol-3-yl)propan-2-yl)-8,9-dimethoxy-6H-benzo[c]chromene-2-carboxamide], the 50% inhibitory concentration (IC50) is below 100 nM.

Regarding `COc1cc2c(cc1OC)-c1cc(C(=O)N[C@@H](CO)Cc3c[nH]c4ccccc34)c(-c3cccc(F)c3F)cc1OC2` [Example 37, 3-(2,3-difluorophenyl)-N—((R)-1-hydroxy-3-(1H-indol-3-yl)propan-2-yl)-8,9-dimethoxy-6H-benzo[c]chromene-2-carboxamide], the IC50 was below 100 nM.

In the case of `COc1cc2c(cc1OC)-c1cc(C(=O)N[C@@H](CO)Cc3c[nH]c4ccccc34)c(-c3c(C)n[nH]c3C)cc1OC2` [Example 38, 3-(3,5-dimethyl-1H-pyrazol-4-yl)-N—((R)-1-hydroxy-3-(1H-indol-3-yl)propan-2-yl)-8,9-dimethoxy-6H-benzo[c]chromene-2-carboxamide], the IC50 was below 100 nM.

For `COc1cc2c(cc1OC)-c1cc(C(=O)N[C@@H](CO)Cc3c[nH]c4ccccc34)c(-c3sccc3C)cc1OC2` [Example 39, N—((R)-1-hydroxy-3-(1H-indol-3-yl)propan-2-yl)-8,9-dimethoxy-3-(3-methylthiophen-2-yl)-6H-benzo[c]chromene-2-carboxamide], the half-inhibitory concentration (IC50) is below 100 nM.

As for `COc1cc2c(cc1OC)-c1cc(C(=O)N[C@@H](CO)Cc3c[nH]c4ccccc34)c(-c3ccccc3)cc1OC2` [Example 40, (R)—N-(1-hydroxy-3-(1H-indol-3-yl)propan-2-yl)-8,9-dimethoxy-3-phenyl-6H-benzo[c]chromene-2-carboxamide], the IC50 is below 100 nM.

Take `COc1cc2c(cc1OC)-c1cc(C(=O)N[C@@H](CO)Cc3c[nH]c4ccccc34)c(C=C(C)C)cc1OC2` [Example 41, (R)—N-(1-hydroxy-3-(1H-indol-3-yl)propan-2-yl)-8,9-dimethoxy-3(2-methylprop-1-enyl)-6H-benzo[c]chromene-2-carboxamide]: the half-inhibitory concentration (IC50) is below 100 nM.

Regarding `COc1cc2c(cc1OC)-c1cc(C(=O)N[C@@H](CO)Cc3c[nH]c4ccccc34)c(CC(C)C)cc1OC2` [Example 42, (R)—N-(1-hydroxy-3-(1H-indol-3-yl)propan-2-yl)-3-isobutyl-8,9-dimethoxy-6H-benzo[c]chromene-2-carboxamide], the concentration for half-maximal inhibition (IC50) is below 100 nM.

For `COc1cc2c(cc1OC(C)C)COc1cc(-c3ccccc3F)c(C(=O)N[C@@H](CO)Cc3c[nH]c4ccccc34)cc1-2` [Example 43, 3-(2-fluorophenyl)-N—((R)-1-hydroxy-3-(1H-indol-3-yl)propan-2-yl)-8-isopropoxy-9-methoxy-6H-benzo[c]chromene-2-carboxamide], the concentration for half-maximal inhibition (IC50) was below 100 nM.

In the case of `COc1cc2c(cc1O)COc1cc(-c3ccccc3F)c(C(=O)N[C@@H](CO)Cc3c[nH]c4ccccc34)cc1-2` [Example 44, 3-(2-fluorophenyl)-8-hydroxy-N—((R)-1-hydroxy-3-(1H-indol-3-yl)propan-2-yl)-9-methoxy-6H-benzo[c]chromene-2-carboxamide], the half-inhibitory concentration (IC50) was below 100 nM.

On to `COCCOc1cc2c(cc1OC)-c1cc(C(=O)N[C@@H](CO)Cc3c[nH]c4ccccc34)c(-c3ccccc3F)cc1OC2` [Example 45, 3-(2-fluorophenyl)-N—((R)-1-hydroxy-3-(1H-indol-3-yl)propan-2-yl)-9-methoxy-8-(2-methoxyethoxy)-6H-benzo[c]chromene-2-carboxamide], for which the IC50 is below 100 nM.

For the molecule `C=CCOc1cc2c(cc1OC)-c1cc(C(=O)N[C@@H](CO)Cc3c[nH]c4ccccc34)c(-c3ccccc3F)cc1OC2` [Example 46, 8-(allyloxy)-3-(2-fluorophenyl)-N—((R)-1-hydroxy-3-(1H-indol-3-yl)propan-2-yl)-9-methoxy-6H-benzo[c]chromene-2-carboxamide], the IC50 is below 100 nM.

Regarding `COc1cc2c(cc1OCCO)COc1cc(-c3ccccc3F)c(C(=O)N[C@@H](CO)Cc3c[nH]c4ccccc34)cc1-2` [Example 47, 3-(2-fluorophenyl)-N—((R)-1-hydroxy-3-(1H-indol-3-yl)propan-2-yl)-8-(2-hydroxyethoxy)-9-methoxy-6H-benzo[c]chromene-2-carboxamide], the concentration for half-maximal inhibition (IC50) was below 100 nM.

With `COc1cc2c(cc1OCCN(C)C)COc1cc(-c3ccccc3F)c(C(=O)N[C@@H](CO)Cc3c[nH]c4ccccc34)cc1-2` [Example 48, 8-(2-(dimethylamino)ethoxy)-3-(2-fluorophenyl)-N—((R)-1-hydroxy-3-(1H-indol-3-yl)propan-2-yl)-9-methoxy-6H-benzo[c]chromene-2-carboxamide], the 50% inhibitory concentration (IC50) was below 100 nM.
